Results: ChEMBL document CHEMBL1743341, “Cytochrome p450 enzymes mechanism based inhibitors: common sub-structures and reactivity” (Curr Drug Metab, 2005)
Each block holds one compound with its values, some of them ahead of it.

Key:
Cytochrome P450 3A4 [1] = target: T1, Cytochrome P450 3A4 (Homo sapiens, UniProt P08684); test: (§1) Mechanism based inhibition of human cytochrome P450 3A4 measured by testosterone 6-beta hydroxylation; assay type: ADME
Cytochrome P450 2C9 = Cytochrome P450 2C9 (Homo sapiens, UniProt P11712); test: Mechanism based inhibition of human cytochrome P450 2C9 measured by Tolbutamide methyl hydroxylation; assay type: ADME
Cytochrome P450 1A2 = target: T2, Cytochrome P450 1A2 (Homo sapiens, UniProt P05177); test: Mechanism based inhibition of human cytochrome P450 1A2 measured by 7-ethoxyresorufin O-deethylation (EROD); assay type: ADME
T2 sequence (P05177 whole entry): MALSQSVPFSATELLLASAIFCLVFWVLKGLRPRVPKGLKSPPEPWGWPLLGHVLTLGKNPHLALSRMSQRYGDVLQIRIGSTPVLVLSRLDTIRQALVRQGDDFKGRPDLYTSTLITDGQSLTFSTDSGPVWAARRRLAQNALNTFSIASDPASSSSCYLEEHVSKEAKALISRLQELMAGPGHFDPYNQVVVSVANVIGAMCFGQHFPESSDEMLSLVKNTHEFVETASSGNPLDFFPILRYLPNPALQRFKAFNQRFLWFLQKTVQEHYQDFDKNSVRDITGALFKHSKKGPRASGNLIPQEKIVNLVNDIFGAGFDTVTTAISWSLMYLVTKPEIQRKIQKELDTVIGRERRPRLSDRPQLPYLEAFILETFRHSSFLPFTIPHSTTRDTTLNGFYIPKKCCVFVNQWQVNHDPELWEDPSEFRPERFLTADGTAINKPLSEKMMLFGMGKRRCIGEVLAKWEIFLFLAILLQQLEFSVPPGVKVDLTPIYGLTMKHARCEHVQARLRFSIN

CYP3A5 = CYP3A5 (Homo sapiens, UniProt P20815); test: (§2) Mechanism based inhibition of human cytochrome P450 3A5 using expressed CYP3A5 cDNA; assay type: ADME; details: human, cDNA-expressed CYP3A5
Cytochrome P450 3A5 = Cytochrome P450 3A5 (Homo sapiens, UniProt P20815); test: as §2; assay type: ADME
CYP3A4 [2] = target: T3, CYP3A4 (Homo sapiens, UniProt P08684); test: (§3) Mechanism based inhibition of human cytochrome P450 3A4 using expressed CYP3A4 cDNA; assay type: ADME; details: human, cDNA-expressed CYP3A4
Cytochrome P450 3A4 [3] = target: T1, Cytochrome P450 3A4; test: as §3; assay type: ADME
CYP3A4 [4] = target: T3, CYP3A4; test: (§4) Mechanism based inhibition of human cytochrome P450 3A4 measured by testosterone 6-beta hydroxylation using a recombinant system; assay type: ADME; details: human, recombinant CYP3A4 system, probe testosterone (6-beta hydroxylation)
Cytochrome P450 3A4 [5] = target: T1, Cytochrome P450 3A4; test: as §4; assay type: ADME
CYP3A4 [6] = target: T3, CYP3A4; test: (§5) Mechanism based inhibition of human cytochrome P450 3A4 measured by testosterone 6-beta hydroxylation using human liver microsomes; assay type: ADME, Microsome; details: human, liver microsomes, probe testosterone (6-beta hydroxylation)
Cytochrome P450 3A4 [7] = target: T1, Cytochrome P450 3A4; test: as §5; assay type: ADME, Microsome
Cytochrome P450 2D6 [8] = target: T4, Cytochrome P450 2D6 (Homo sapiens, UniProt P10635); test: (§6) Mechanism based inhibition of human cytochrome P450 2D6 measured by dextromethorphan O-demethylation
CYP2D6 [9] = target: T5, CYP2D6 (Homo sapiens, UniProt P10635); test: as §6; details: human, probe dextromethorphan
CYP2E1 = CYP2E1 (Homo sapiens, UniProt P05181); test: (§7) Mechanism based inhibition of human cytochrome P450 2E1; assay type: ADME; details: human
Cytochrome P450 2E1 [10] = target: T6, Cytochrome P450 2E1 (Homo sapiens, UniProt P05181); test: as §7; assay type: ADME
Cytochrome P450 2B1 = target: T7, Cytochrome P450 2B1 (Rattus norvegicus, UniProt P00176); test: Mechanism based inhibition of rat cytochrome P450 CYP2B1 measured by 7-EFC O-deethylation activity; assay type: ADME; details: rat
T7 sequence (P00176 whole entry): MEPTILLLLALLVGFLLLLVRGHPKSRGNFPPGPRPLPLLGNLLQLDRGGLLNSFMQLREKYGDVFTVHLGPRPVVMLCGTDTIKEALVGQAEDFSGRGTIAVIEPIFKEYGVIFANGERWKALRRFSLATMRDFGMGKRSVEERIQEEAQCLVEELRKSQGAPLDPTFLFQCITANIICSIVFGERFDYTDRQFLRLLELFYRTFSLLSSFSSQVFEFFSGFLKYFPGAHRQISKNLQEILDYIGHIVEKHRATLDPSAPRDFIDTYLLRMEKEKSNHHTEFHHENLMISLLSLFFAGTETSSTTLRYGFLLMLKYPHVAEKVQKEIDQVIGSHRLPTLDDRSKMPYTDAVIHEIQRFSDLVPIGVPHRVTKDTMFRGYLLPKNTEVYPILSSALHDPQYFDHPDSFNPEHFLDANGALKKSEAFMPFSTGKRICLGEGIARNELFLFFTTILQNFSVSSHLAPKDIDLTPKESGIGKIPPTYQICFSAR

CYP3A4 [11] = target: T3, CYP3A4; test: as §1; assay type: ADME; details: human, probe testosterone (6-beta hydroxylation)
Cytochrome P450 2D6 [12] = target: T4, Cytochrome P450 2D6; test: (§8) Mechanism based inhibition of human cytochrome P450 2D6 measured by […] 1'-hydroxylation; assay type: ADME
CYP2D6 [13] = target: T5, CYP2D6; test: as §8; assay type: ADME; details: human, probe bufurarol
Cytochrome P450 3A4 [14] = target: T1, Cytochrome P450 3A4; test: (§9) Mechanism based inhibition of human cytochrome P450 3A4; assay type: ADME
Cytochrome P450 3A4 [15] = target: T1, Cytochrome P450 3A4; test: Mechanism based inhibition of human cytochrome P450 3A4, partition ratio; assay type: ADME
CYP3A4 [16] = target: T3, CYP3A4; test: (§10) Mechanism based inhibition of human cytochrome P450 3A4 measured by midazolam 1'-hydroxylation; assay type: ADME; details: probe midazolam (1'-hydroxylation)
Cytochrome P450 3A4 [17] = target: T1, Cytochrome P450 3A4; test: as §10; assay type: ADME
CYP3A4 [18] = target: T3, CYP3A4; test: (§11) Mechanism based inhibition of human cytochrome P450 3A4 measured by DBF fluorescence; assay type: ADME; details: human, probe DBF
Cytochrome P450 3A4 [19] = target: T1, Cytochrome P450 3A4; test: as §11; assay type: ADME
Cytochrome P450 3A4 [20] = target: T1, Cytochrome P450 3A4; test: Mechanism based inhibition of human cytochrome P450 3A4 measured by midazolam hydroxylation in vivo; assay type: ADME, organism-based
Cytochrome P450 3A4 [21] = target: T1, Cytochrome P450 3A4; test: as §9; assay type: ADME; remark: listed apart in the source
CYP3A4 [22] = target: T3, CYP3A4; test: (§12) Mechanism based inhibition of human cytochrome P450 3A4 measured by N-demethylation of erythromycin; assay type: ADME; details: human, probe erythromycin (N-demethylation)
Cytochrome P450 3A4 [23] = target: T1, Cytochrome P450 3A4; test: as §12; assay type: ADME
Cytochrome P450 2E1 [24] = target: T6, Cytochrome P450 2E1; test: Mechanism based inhibition of human cytochrome P450 2E1 measured by chlorzoxazone 6-hydroxylase activity; assay type: ADME

T1 sequence (P08684 whole entry): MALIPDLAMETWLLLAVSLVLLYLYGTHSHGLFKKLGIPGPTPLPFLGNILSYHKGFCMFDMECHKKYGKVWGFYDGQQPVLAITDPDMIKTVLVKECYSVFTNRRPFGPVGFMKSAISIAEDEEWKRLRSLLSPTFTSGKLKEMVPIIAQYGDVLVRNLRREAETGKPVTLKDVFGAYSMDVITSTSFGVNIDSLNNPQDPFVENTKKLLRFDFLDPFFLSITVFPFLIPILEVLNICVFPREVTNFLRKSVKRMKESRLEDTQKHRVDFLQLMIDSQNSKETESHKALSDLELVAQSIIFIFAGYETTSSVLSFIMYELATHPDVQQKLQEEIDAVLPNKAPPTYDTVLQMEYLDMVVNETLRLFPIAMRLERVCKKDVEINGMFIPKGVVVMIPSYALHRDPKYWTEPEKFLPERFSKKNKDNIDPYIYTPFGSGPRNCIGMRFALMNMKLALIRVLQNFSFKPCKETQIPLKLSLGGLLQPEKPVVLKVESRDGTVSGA
T3 sequence (P08684 whole entry): as above
T5 sequence (P10635 whole entry): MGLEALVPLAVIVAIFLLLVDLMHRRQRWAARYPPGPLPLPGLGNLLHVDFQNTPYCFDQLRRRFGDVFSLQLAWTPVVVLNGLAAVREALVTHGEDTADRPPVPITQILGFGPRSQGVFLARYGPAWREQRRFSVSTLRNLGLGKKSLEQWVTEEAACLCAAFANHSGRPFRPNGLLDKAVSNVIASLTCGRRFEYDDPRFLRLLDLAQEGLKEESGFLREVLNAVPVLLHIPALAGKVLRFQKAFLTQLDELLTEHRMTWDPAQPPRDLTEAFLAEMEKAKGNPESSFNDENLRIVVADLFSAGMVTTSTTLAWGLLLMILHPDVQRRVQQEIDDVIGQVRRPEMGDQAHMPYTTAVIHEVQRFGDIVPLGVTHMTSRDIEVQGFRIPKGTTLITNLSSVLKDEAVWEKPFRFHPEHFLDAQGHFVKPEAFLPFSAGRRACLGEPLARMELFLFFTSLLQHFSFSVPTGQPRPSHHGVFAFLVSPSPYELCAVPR
T4 sequence (P10635 whole entry): as above
T6 sequence (P05181 whole entry): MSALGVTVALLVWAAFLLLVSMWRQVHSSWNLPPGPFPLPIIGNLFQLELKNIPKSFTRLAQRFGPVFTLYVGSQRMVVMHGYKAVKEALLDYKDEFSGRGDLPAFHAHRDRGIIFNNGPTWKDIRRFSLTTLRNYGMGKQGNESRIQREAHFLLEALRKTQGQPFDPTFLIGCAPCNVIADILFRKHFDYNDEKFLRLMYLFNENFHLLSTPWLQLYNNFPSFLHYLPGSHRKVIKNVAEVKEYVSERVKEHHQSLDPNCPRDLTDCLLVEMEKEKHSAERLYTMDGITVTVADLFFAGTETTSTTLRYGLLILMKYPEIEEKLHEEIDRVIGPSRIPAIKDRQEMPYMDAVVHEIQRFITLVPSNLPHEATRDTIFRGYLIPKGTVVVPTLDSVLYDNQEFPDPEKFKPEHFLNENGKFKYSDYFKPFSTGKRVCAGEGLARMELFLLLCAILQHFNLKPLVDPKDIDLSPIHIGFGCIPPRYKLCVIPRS
Chain of Cytochrome P450 2C9 (P11712 whole entry): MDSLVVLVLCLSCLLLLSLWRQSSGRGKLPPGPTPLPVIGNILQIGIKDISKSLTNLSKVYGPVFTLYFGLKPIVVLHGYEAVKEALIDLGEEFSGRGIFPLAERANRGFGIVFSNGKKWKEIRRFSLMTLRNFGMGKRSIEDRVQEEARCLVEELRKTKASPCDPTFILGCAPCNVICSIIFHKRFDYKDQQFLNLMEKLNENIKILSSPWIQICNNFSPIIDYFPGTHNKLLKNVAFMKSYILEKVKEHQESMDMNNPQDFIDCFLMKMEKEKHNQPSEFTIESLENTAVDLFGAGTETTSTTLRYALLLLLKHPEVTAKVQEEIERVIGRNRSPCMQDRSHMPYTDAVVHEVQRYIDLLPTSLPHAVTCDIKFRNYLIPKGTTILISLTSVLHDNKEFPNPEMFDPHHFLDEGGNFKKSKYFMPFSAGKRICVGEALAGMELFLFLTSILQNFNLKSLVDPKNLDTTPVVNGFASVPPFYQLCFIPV
Chain of CYP3A5 (P20815 whole entry): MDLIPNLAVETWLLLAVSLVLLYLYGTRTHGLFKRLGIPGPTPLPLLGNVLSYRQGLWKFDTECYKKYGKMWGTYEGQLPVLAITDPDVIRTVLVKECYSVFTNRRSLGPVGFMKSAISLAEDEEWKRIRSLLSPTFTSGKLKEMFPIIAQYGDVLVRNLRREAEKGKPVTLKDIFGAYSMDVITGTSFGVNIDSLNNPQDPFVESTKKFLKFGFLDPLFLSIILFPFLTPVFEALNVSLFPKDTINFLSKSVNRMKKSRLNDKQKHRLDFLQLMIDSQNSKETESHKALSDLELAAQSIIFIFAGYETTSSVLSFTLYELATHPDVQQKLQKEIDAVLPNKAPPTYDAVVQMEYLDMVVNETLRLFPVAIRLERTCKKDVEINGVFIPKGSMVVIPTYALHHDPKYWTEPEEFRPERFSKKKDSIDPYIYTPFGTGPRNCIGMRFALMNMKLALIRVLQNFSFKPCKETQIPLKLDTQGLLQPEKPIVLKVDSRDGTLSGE
Chain of Cytochrome P450 3A5 (P20815 whole entry): as above
Chain of CYP2E1 (P05181 whole entry): as the sequence (P05181 whole entry) above

Structure (SMILES): CCOP(=S)(OCC)Oc1ccc([N+](=O)[O-])cc1 [PARATHION]
mechanism based inhibition (Cytochrome P450 3A4 [1]): Cytochrome P450 mechanistic inhibitor: PMID 9023313
mechanism based inhibition (Cytochrome P450 2C9): Cytochrome P450 mechanistic inhibitor: PMID 9023313
mechanism based inhibition (Cytochrome P450 1A2): Cytochrome P450 mechanistic inhibitor: PMID 9023313

kinact (CYP3A5): 0.00117 s⁻¹
Ki (Cytochrome P450 3A5): 4.53 µM
kinact (CYP3A4 [2]): 0.005 s⁻¹
Ki (Cytochrome P450 3A4 [3]): 10.3 µM
kinact (CYP3A4 [4]): 0.0187 s⁻¹
Ki (Cytochrome P450 3A4 [5]): 5.89 µM
kinact (CYP3A4 [6]): 0.0035 s⁻¹
Ki (Cytochrome P450 3A4 [7]): 2.11 µM
Structure (SMILES): COc1ccc(CCNCCCC(C#N)(c2ccc(OC)c(OC)c2)C(C)C)cc1OC (stereo unspecified) [NORVERAPAMIL]

Structure (SMILES): CN/C(=N/CCSCc1nc[nH]c1C)NC#N [CIMETIDINE]
Ki (Cytochrome P450 2D6 [8]): 77 µM
kinact (CYP2D6 [9]): 0.0005 s⁻¹

Structure (SMILES): S=C=NCCc1ccccc1 [PHENETHYLISOTHIOCYANATE]
kinact (CYP2E1): 0.00565 s⁻¹
Ki (Cytochrome P450 2E1 [10]): 9.98 µM
mechanism based inhibition (Cytochrome P450 2B1): Cytochrome P450 mechanistic inhibitor: PMID 11454729

kinact (CYP3A4 [11]): 0.027 s⁻¹
Ki (Cytochrome P450 3A4 [1]): 7.5 µM
Ki (Cytochrome P450 2D6 [12]): 32 µM
kinact (CYP2D6 [13]): 0.003 s⁻¹
Partition ratio (Cytochrome P450 3A4 [15]): 1.4
Structure (SMILES): CC(C)(C)NC(=O)[C@@H]1CN(Cc2cnc3occc3c2)CCN1C[C@@H](O)C[C@@H](Cc1ccccc1)C(=O)N[C@H]1c2ccccc2C[C@H]1O
mechanism based inhibition (Cytochrome P450 3A4 [1]): Cytochrome P450 mechanistic inhibitor: PMID 8531125
mechanism based inhibition (Cytochrome P450 3A4 [14]): Cytochrome P450 mechanistic inhibitor: PMID 10757976

kinact (CYP3A4 [11]): 0.00133 s⁻¹
Ki (Cytochrome P450 3A4 [1]): 2.6 µM
kinact (CYP3A4 [16]): 0.00217 s⁻¹
Ki (Cytochrome P450 3A4 [17]): 12 µM
Structure (SMILES): CC/C(=C(\c1ccccc1)c1ccc(OCCN)cc1)c1ccccc1 [DESMETHYL TAMOXIFEN]

Structure (SMILES): CC(O)CCC(=O)c1ccoc1 (stereo unspecified)
kinact (CYP3A4 [18]): 0.0025 s⁻¹
Ki (Cytochrome P450 3A4 [19]): 20 µM
Partition ratio (Cytochrome P450 3A4 [15]): 257

Structure (SMILES): C#C[C@]1(O)C=C[C@H]2[C@@H]3CCC4=CC(=O)CC[C@@H]4[C@H]3CC[C@@]21CC [GESTODENE]
mechanism based inhibition (Cytochrome P450 3A4 [20]): Cytochrome P450 mechanistic inhibitor: PMID 11012556
mechanism based inhibition (Cytochrome P450 3A4 [14]): Cytochrome P450 mechanistic inhibitor: PMID 9385444
mechanism based inhibition (Cytochrome P450 3A4 [21]): Cytochrome P450 mechanistic inhibitor: PMID 2133086

kinact (CYP3A4 [22]): 0.00153 s⁻¹
Ki (Cytochrome P450 3A4 [23]): 0.399 µM
Structure (SMILES): COc1cc2c(c(OC)c1OC)-c1c(cc3c(c1OC)OCO3)C[C@H](C)[C@](C)(O)[C@H]2OC(=O)c1ccccc1 [GOMISIN C]

Structure (SMILES): FC(F)(F)C(Cl)Br (stereo unspecified) [HALOTHANE]
mechanism based inhibition (Cytochrome P450 2E1 [24]): Cytochrome P450 mechanistic inhibitor: PMID 8902272
